{"source": "patent US11479770B2", "about": "“Use of p38 inhibitors to reduce expression of DUX4” (Fulcrum Therapeutics, Inc., priority 2017, dated 2022)", "key": {"DUX4 target genes": {"system": "DUX4 target genes", "experiment": "RNA-seq profiling of FSHD myotubes", "assay_type": "cell-based, human", "conditions": "1 μM", "excerpt": "The 40 bp single-end reads from Illumina had good quality by checking with FastQC (http://www.bioinformatics.babraham.ac.uk/projects/fastqc/). Reads were mapped to hg19 using TopHat v2.1.1 (Kim et al., 2013) with options as “solexa1.3-quals” mode and “no-novel-juncs.” The gene model for TopHat was created by merging known gene in gtf format with kgXref table. Both known gene and kgXref were downloaded from UCSC table browser in hg19 assembly. The read counts were obtained using featureCounts function from Subread package with strandness option as −r 2. Reads were normalized with DESeq2 (Love et al., 2014).\nThe 40 bp single-end reads from Illumina had good quality by checking with FastQC (http://www.bioinformatics.babraham.ac.uk/projects/fastqc/). Reads were mapped to hg19 using TopHat v2.1.1. The gene model for TopHat was created by merging knownGene in gtf format with kgXref table. Both known gene and kgXref were downloaded from UCSC table browser in hg19 assembly. The read counts were obtained using feature Counts function from Subread package with strandness option as -r 2. Reads were normalized with DESeq2. […] Calculated standard RPKM expression values. […]\nIn addition, gene expression was also determined in wild type myotubes treated with DMSO. Three replicates for each condition were analyzed by RNA-seq and genes were clustered by the direction and intensity of change."}, "[1]": {"system": "MBD3L2 mRNA (DUX4 downstream gene)", "experiment": "MBD3L2 mRNA expression (qPCR) in FSHD myotubes", "assay_type": "cell-based, human", "conditions": "1 μM", "method": "On day 0, the media was changed to differentiation media. Plates were removed from the incubator and the growth medium was aspirated, plates were washed once with PBS, 100 μL, for 96-wells and 1 mL for a 6-well plate, 100 μL, or 2 mL of differentiation medium was added per well, 96- or 6-well respectively. Antisense oligonucleotides or drug were added at the desired concentration, and the plates were put back in the incubator and incubated for 3-4 days.\nCells were removed from the incubator and media aspirated. Cells were quickly lysed following one of the following protocols: for lysis in 96-well plates, direct lysis and one-step RT-Preamp qPCR was performed according to the protocol described below. For each 96-well, a mix containing: 19.5 μL Roche Realtime Ready lysis buffer, 0.25 μL RNAse inhibitor, 0.25 μL DNAseI (from Thermo not the included one in the kit) was prepared. 20 μL of the mix was added to each well, mixed 5 times, and incubated 5 minutes at RT or alternatively shaken vigorously for 15 minutes. Lysis was observed under the microscope. Samples were frozen −80° C. at least for 15 minutes.\n1-step RT-Preamplification was used for detection of DUX4 downstream genes, i.e., MBD3L2, ZSCAN4, LEUTX, TRIM43, KHDC1L, and POL2RA-VIC was used as endogenous control. Per 10 μL reaction, the reaction mix included: 2.25 μL of RNA (1:10 dilution lysate), 5 μL of Taqman Pre-Amp Master Mix (2×), 0.25 μL of RT enzyme mix (40×), 2.5 μL of Taqman probe set (0.2×)*. * For pooling the TaqMan Assays, equal volumes of each 20× TaqMan® Gene Expression Assay were used, and up to 100 assays were combined. For example, to pool 50 TaqMan assays, 10 μL of each assay were combined in a microcentrifuge tube. The pooled TaqMan assays were diluted using 1× TE buffer so that each assay was at a final concentration of 0.2×. For the above example, 500 μL of 1× TE buffer was added to the pooled TaqMan assays for a total final volume of 1 mL. The QuantStudio7 protocol was used at 48° C. 15 min, 95° C. 10 min, 10 cycles: 95° C. 15 sec, 60° C. 4 min, and 4° C. infinite Samples were then diluted to 50 μL and continued with the qPCR step. Per 10 μL reaction, the reaction mix included: 2 μL of Preamp dilution, 5 μL of Fast Advanced Taqman Master Mix (2×), 0.5 μL of Taqman probe set (20×), and 2.5 μL of H2O. When multiplexing, the volume was adjusted to 10 μL total. The following program was run on the QuantStudio7: 50° C. for 2 min, 95° C. for 30 sec, 40×, 95° C. for 5 sec, 60° C. for 30 sec, and plates were read as per the manufacturers specifications (Thermo).\nWild type myotubes and mature patient-derived FSHD myotubes that express DUX4 protein were treated with DMSO vehicle control or multiple concentrations of various p38α/β inhibitors with different ranges of isoform and kinome selectivity, including SB239063 (FIG. 4A), VX-702 (FIG. 4B), Pamapimod (FIG. 4C), and TAK-715 (FIG. 4D). After treatment, the control and treated cells were processed for realtime PCR quantification of MBD3L2 mRNA (DUX4 downstream gene) and myogenin (MYOG) mRNA (control) expression."}, "[2]": {"system": "DUX4 dependent target genes", "experiment": "Predicted reduction of DUX4 dependent target genes in FSHD patient muscle", "set-up": "species or system human", "conditions": "from rat muscle concentrations and in vitro FSHD myotube data", "method": "P38 system target engagement persisted for at least 12 hours following the single dose of FTX-1821 (FIG. 15). P38 system target engagement in trapezius muscle was maximal when plasma and muscle concentrations of FTX-1821 were greater than 20 ng.mL or ng.g and declined at timepoints when exposures decreased. The muscle concentrations of FTX-1821 achieved in the rat study are predicted to result in >70% reduction at Cmax in DUX4 dependent target genes in FSHD patient muscle biopsies based upon in vitro data in FSHD myotubes (above)."}, "[3]": {"conditions": "rat; oral; clinically relevant plasma exposures"}, "[4]": {"system": "p38 system (phospho MK2 to total MK2 ratio)", "experiment": "Rat PD: phospho MK2 to total MK2 ratio in trapezius muscle", "assay_type": "in vivo", "method": "Approximately 50 mg of muscle tissue was placed on dry ice. Muscle samples were cut, as needed to obtain the 50 mg weight using a clean razor blade per specimen. 50 mg of muscle tissue was placed into a pre-labeled TT1 Covaris bag (Covaris, MA, USA) and kept on dry ice. The TT1 Covaris bag was submerged in liquid nitrogen and the sample was cryofractured in the Covaris cryoPREP (Covaris, MA, USA) on setting “5”. The TT1 bag was rotated 180° and steps 2-a were repeated. The sample was transferred into a pre-weighed/labeled tube and maintained on dry ice until all samples were prepared. Sample weights were recorded. RIPA lysis buffer was prepared (R0278-500ML, Sigma, MO, USA). For 10 ml, two Roche PhosSTOP phosphatase inhibitor tablets and one Roche EDTA-free protease inhibitor tablet were added. To the cryofractured material, 8 μl per mg of RIPA buffer were added to each tube and each tube was vortexed until the lysate was homogeneous. Lysates were maintained on ice until all samples were processed. The lysate was cleared by centrifugation at 13,000 g for 5 minutes at 4° C. The supernatant was transferred to a new tube and snap frozen in liquid nitrogen (setting aside […] for protein assay). To measure the protein content of each sample, a Bradford DC protein assay (5000112, Bio-Rad, CA, USA) was conducted. Samples were diluted 1:20 in PBS for protein assessment.\nThe homogenized trapezius muscle lysate was assessed using an internally developed Meso Scale Discovery (MSD) multiplexed phospho MK2/total MK2 immunoassay (Meso Scale Diagnostics, MD, USA). For each sample, 50 μL of muscle lysate, equal to 50 μg of protein, was loaded onto the MSD assay. Protein concentrations in muscle lysates were determined by a Bradford DC protein assay as described above. Samples were assessed in duplicate. Muscle samples were incubated on a pre-coated MSD plate overnight at 4° C. while on an orbital shaker (300 rpm) and assessed the following morning."}, "[5]": {"conditions": "rat, single oral dose 0.3 mg/kg"}}}
{"smiles": "Cc1c(F)cc(C(=O)NC2CC2)cc1-c1ccc(C(=O)NCC(C)(C)C)cn1", "note": "[FTX-1821]", "values": [{"measurement": "non-DUX4-regulated genes in total signature", "setting": "DUX4 target genes; moderate fold changes", "value": "9/86"}, {"measurement": "expression of differentially expressed (DUX4 pathway) genes by RNA-seq", "setting": "DUX4 target genes; vs DMSO and wild type", "value": "normalized"}, {"measurement": "MBD3L2 mRNA in FSHD1 and FSHD2 primary patient myoblast lines", "setting": "[1]; to levels similar to healthy control lines", "value": "reduction"}, {"measurement": "MBD3L2 expression levels in four FSHD patient lines", "setting": "[1]; FTCE-016, -020, -197, -196 myotubes, to levels similar to healthy controls", "value": "reduced"}, {"measurement": "predicted reduction at Cmax in DUX4 dependent target genes in FSHD patient muscle biopsies", "setting": "[2]", "value": "> 70", "unit": "%"}, {"measurement": "Muscle to plasma exposure ratios", "setting": "[3]", "value": "≥ 1"}, {"measurement": "plasma concentration at maximal inhibition of the p38 system in muscle", "setting": "[4]; rat", "value": "greater than 20 ng/mL"}, {"measurement": "plasma and muscle concentrations at maximal p38 system target engagement", "setting": "[4]; rat trapezius muscle", "value": "greater than 20 ng.mL or ng.g"}, {"measurement": "time to significant decrease of phospho MK2 to total MK2 ratio", "setting": "[4]; rat trapezius, single oral dose 0.3 mg/kg", "value": "≤ 1", "unit": "h"}, {"measurement": "persistence of p38 system target engagement", "setting": "[4]; [5]", "value": "at least 12 hours"}, {"measurement": "phospho MK2 to total MK2 ratio in trapezius muscle", "setting": "[4]; [5]", "value": "significantly decreased"}]}
